Test results: publication PMC10702058, “Phase I dose escalation study and pilot efficacy analysis of LXI-15029, a novel mTOR dual inhibitor, in Chinese subjects with advanced malignant solid tumors” (BMC Cancer, 2023)

Test: Phase I dose escalation: safety and tolerability (DLT, MTD, adverse events, NCI-CTCAE 4.03)

CNC(=O)c1cccc(-c2ccc3c(N4C5CCC4COC5)nc(N4CCOC[C@@H]4C)nc3n2)c1 [LXI-15029]
Patients with any TEAE (10 mg BID (n = 3)): 3 (100.0) n (%)
Patients with any TEAE, maximum CTCAE Grade 1 (10 mg BID (n = 3)): 3 (100.0) n (%)
Patients with any TEAE, maximum CTCAE Grade 2 (10 mg BID (n = 3)): 0 n (%)
Patients with any TEAE, maximum CTCAE Grade 3 (10 mg BID (n = 3)): 0 n (%)
≥ 10% TRAE: ALT increased (10 mg BID (n = 3)): 0 n (%)
≥ 10% TRAE: AST increased (10 mg BID (n = 3)): 0 n (%)
≥ 10% TRAE: Decreased appetite (10 mg BID (n = 3)): 1 (33.3) n (%)
≥ 10% TRAE: Diarrhea (10 mg BID (n = 3)): 0 n (%)
≥ 10% TRAE: ECG QT prolonged (10 mg BID (n = 3)): 0 n (%)
≥ 10% TRAE: Fatigue (10 mg BID (n = 3)): 0 n (%)
≥ 10% TRAE: GGT increased (10 mg BID (n = 3)): 0 n (%)
≥ 10% TRAE: Hypercholesterolemia (10 mg BID (n = 3)): 0 n (%)
≥ 10% TRAE: Hypertriglyceridemia (10 mg BID (n = 3)): 0 n (%)
≥ 10% TRAE: LDL increased (10 mg BID (n = 3)): 0 n (%)
≥ 10% TRAE: Leukocytopenia (10 mg BID (n = 3)): 0 n (%)
≥ 10% TRAE: Neutropenia (10 mg BID (n = 3)): 0 n (%)
≥ 10% TRAE: Sinus bradycardia (10 mg BID (n = 3)): 0 n (%)
Patients with any TEAE (20 mg BID (n = 3)): 3 (100.0) n (%)
Patients with any TEAE, maximum CTCAE Grade 1 (20 mg BID (n = 3)): 2 (66.7) n (%)
Patients with any TEAE, maximum CTCAE Grade 2 (20 mg BID (n = 3)): 1 (33.3) n (%)
Patients with any TEAE, maximum CTCAE Grade 3 (20 mg BID (n = 3)): 0 n (%)
≥ 10% TRAE: ALT increased (20 mg BID (n = 3)): 1 (33.3) n (%)
≥ 10% TRAE: AST increased (20 mg BID (n = 3)): 0 n (%)
≥ 10% TRAE: Decreased appetite (20 mg BID (n = 3)): 0 n (%)
≥ 10% TRAE: Diarrhea (20 mg BID (n = 3)): 0 n (%)
≥ 10% TRAE: ECG QT prolonged (20 mg BID (n = 3)): 0 n (%)
≥ 10% TRAE: Fatigue (20 mg BID (n = 3)): 1 (33.3) n (%)
≥ 10% TRAE: GGT increased (20 mg BID (n = 3)): 1 (33.3) n (%)
≥ 10% TRAE: Hypercholesterolemia (20 mg BID (n = 3)): 0 n (%)
≥ 10% TRAE: Hypertriglyceridemia (20 mg BID (n = 3)): 1 (33.3) n (%)
≥ 10% TRAE: LDL increased (20 mg BID (n = 3)): 1 (33.3) n (%)
≥ 10% TRAE: Leukocytopenia (20 mg BID (n = 3)): 1 (33.3) n (%)
≥ 10% TRAE: Neutropenia (20 mg BID (n = 3)): 0 n (%)
≥ 10% TRAE: Sinus bradycardia (20 mg BID (n = 3)): 1 (33.3) n (%)
Patients with any TEAE (40 mg BID (n = 3)): 2 (66.7) n (%)
Patients with any TEAE, maximum CTCAE Grade 1 (40 mg BID (n = 3)): 1 (33.3) n (%)
Patients with any TEAE, maximum CTCAE Grade 2 (40 mg BID (n = 3)): 1 (33.3) n (%)
Patients with any TEAE, maximum CTCAE Grade 3 (40 mg BID (n = 3)): 0 n (%)
≥ 10% TRAE: ALT increased (40 mg BID (n = 3)): 0 n (%)
≥ 10% TRAE: AST increased (40 mg BID (n = 3)): 0 n (%)
≥ 10% TRAE: Decreased appetite (40 mg BID (n = 3)): 0 n (%)
≥ 10% TRAE: Diarrhea (40 mg BID (n = 3)): 0 n (%)
≥ 10% TRAE: ECG QT prolonged (40 mg BID (n = 3)): 0 n (%)
≥ 10% TRAE: Fatigue (40 mg BID (n = 3)): 0 n (%)
≥ 10% TRAE: GGT increased (40 mg BID (n = 3)): 0 n (%)
≥ 10% TRAE: Hypercholesterolemia (40 mg BID (n = 3)): 0 n (%)
≥ 10% TRAE: Hypertriglyceridemia (40 mg BID (n = 3)): 1 (33.3) n (%)
≥ 10% TRAE: LDL increased (40 mg BID (n = 3)): 1 (33.3) n (%)
≥ 10% TRAE: Leukocytopenia (40 mg BID (n = 3)): 2 (66.7) n (%)
≥ 10% TRAE: Neutropenia (40 mg BID (n = 3)): 0 n (%)
≥ 10% TRAE: Sinus bradycardia (40 mg BID (n = 3)): 0 n (%)
Patients with any TEAE (60 mg BID (n = 4)): 3 (75.0) n (%)
Patients with any TEAE, maximum CTCAE Grade 1 (60 mg BID (n = 4)): 1 (25.0) n (%)
Patients with any TEAE, maximum CTCAE Grade 2 (60 mg BID (n = 4)): 2 (50.0) n (%)
Patients with any TEAE, maximum CTCAE Grade 3 (60 mg BID (n = 4)): 0 n (%)
≥ 10% TRAE: ALT increased (60 mg BID (n = 4)): 1 (25.0) n (%)
≥ 10% TRAE: AST increased (60 mg BID (n = 4)): 1 (25.0) n (%)
≥ 10% TRAE: Decreased appetite (60 mg BID (n = 4)): 0 n (%)
≥ 10% TRAE: Diarrhea (60 mg BID (n = 4)): 2 (50.0) n (%)
≥ 10% TRAE: ECG QT prolonged (60 mg BID (n = 4)): 2 (50.0) n (%)
≥ 10% TRAE: Fatigue (60 mg BID (n = 4)): 1 (25.0) n (%)
≥ 10% TRAE: GGT increased (60 mg BID (n = 4)): 1 (25.0) n (%)
≥ 10% TRAE: Hypercholesterolemia (60 mg BID (n = 4)): 3 (75.0) n (%)
≥ 10% TRAE: Hypertriglyceridemia (60 mg BID (n = 4)): 2 (50.0) n (%)
≥ 10% TRAE: LDL increased (60 mg BID (n = 4)): 1 (25.0) n (%)
≥ 10% TRAE: Leukocytopenia (60 mg BID (n = 4)): 1 (25.0) n (%)
≥ 10% TRAE: Neutropenia (60 mg BID (n = 4)): 1 (25.0) n (%)
≥ 10% TRAE: Sinus bradycardia (60 mg BID (n = 4)): 1 (25.0) n (%)
Patients with any TEAE (80 mg BID (n = 4)): 4 (100.0) n (%)
Patients with any TEAE, maximum CTCAE Grade 1 (80 mg BID (n = 4)): 3 (75.0) n (%)
Patients with any TEAE, maximum CTCAE Grade 2 (80 mg BID (n = 4)): 1 (25.0) n (%)
Patients with any TEAE, maximum CTCAE Grade 3 (80 mg BID (n = 4)): 0 n (%)
≥ 10% TRAE: ALT increased (80 mg BID (n = 4)): 0 n (%)
≥ 10% TRAE: AST increased (80 mg BID (n = 4)): 0 n (%)
≥ 10% TRAE: Decreased appetite (80 mg BID (n = 4)): 1 (25.0) n (%)
≥ 10% TRAE: Diarrhea (80 mg BID (n = 4)): 2 (50.0) n (%)
≥ 10% TRAE: ECG QT prolonged (80 mg BID (n = 4)): 1 (25.0) n (%)
≥ 10% TRAE: Fatigue (80 mg BID (n = 4)): 2 (50.0) n (%)
≥ 10% TRAE: GGT increased (80 mg BID (n = 4)): 0 n (%)
≥ 10% TRAE: Hypercholesterolemia (80 mg BID (n = 4)): 0 n (%)
≥ 10% TRAE: Hypertriglyceridemia (80 mg BID (n = 4)): 0 n (%)
≥ 10% TRAE: LDL increased (80 mg BID (n = 4)): 0 n (%)
≥ 10% TRAE: Leukocytopenia (80 mg BID (n = 4)): 2 (50.0) n (%)
≥ 10% TRAE: Neutropenia (80 mg BID (n = 4)): 0 n (%)
